{
  "source": "patent US20250090557A1",
  "about": "(priority 2020, published 2025)",
  "key": {"SARS-CoV-2 [1]": {"tested_on": "SARS-CoV-2", "assay_type": "cell-based"}, "SARS-CoV-2 [2]": {"tested_on": "SARS-CoV-2", "assay_type": "cell-based", "remark": "listed apart in the source"}, "SARS-CoV-2 [3]": {"tested_on": "SARS-CoV-2", "assay": "SARS-CoV-2 infection of air-liquid interface human airway epithelium cultures (flow cytometry)", "assay_type": "cell-based", "settings": "100 nM, 72 h"}, "SARS-CoV-2 [4]": {"tested_on": "SARS-CoV-2", "assay": "SARS-CoV-2 infection of HEK293T-hACE2 cells (flow cytometry)", "assay_type": "cell-based", "settings": "HEK293T-hACE2, 100 nM, 72 h"}, "cleaved caspase 3 [5]": {"tested_on": "cleaved caspase 3", "assay_type": "cell-based, African green monkey", "settings": "Vero"}, "cleaved caspase 3 [6]": {"tested_on": "cleaved caspase 3", "assay_type": "cell-based, human"}, "[7]": {"tested_on": "mitochondrial reactive oxygen species (mito-ROS)", "assay_type": "cell-based, human"}, "[8]": {"tested_on": "ACE2, CD147, NRP1 and TMPRSS2", "assay": "Host entry factor protein levels in Calu3 cells (flow cytometry)", "assay_type": "cell-based, human", "settings": "Calu3, compared to uninfected cells, data not shown"}, "IFN-β and IFN-λ": {"tested_on": "IFN-β and IFN-λ", "assay_type": "cell-based, human"}, "MAVS": {"tested_on": "MAVS", "assay": "MAVS protein levels in Calu3 cells (flow cytometry)", "assay_type": "cell-based, human", "settings": "total and SARS-CoV-2 infected Calu3 cells, data not shown"}, "TOM70": {"tested_on": "TOM70", "assay": "TOM70 protein levels in Calu3 cells (flow cytometry, immunofluorescence)", "assay_type": "cell-based, human"}, "STING": {"tested_on": "STING", "assay": "STING protein levels in Calu3 cells (flow cytometry)", "assay_type": "cell-based, human", "settings": "SARS-CoV-2 infected Calu3 cells, data not shown"}, "MX1": {"tested_on": "MX1", "assay_type": "cell-based, human", "settings": "infected Calu3, vs vehicle treated"}, "Nrf2": {"tested_on": "Nrf2", "assay": "Nrf2 protein levels in Calu3 cells (flow cytometry)", "assay_type": "cell-based, human", "settings": "infected and uninfected Calu3, pretreatment, data not shown"}, "Keap1": {"tested_on": "Keap1", "assay": "Keap1 protein levels in Calu3 cells (flow cytometry)", "assay_type": "cell-based, human", "settings": "infected and uninfected Calu3, pretreatment, data not shown"}, "IL-6": {"tested_on": "IL-6", "assay_type": "cell-based, African green monkey"}, "IL-1β": {"tested_on": "IL-1β", "assay_type": "cell-based, human", "settings": "infected Calu3 supernatants"}, "SARS-CoV-2 [9]": {"tested_on": "SARS-CoV-2", "assay": "SARS-CoV-2 infection of K18-hACE2 transgenic mice, lung viral titer", "assay_type": "in vivo, mouse", "settings": "4 mg/kg per day intraperitoneally, 72 h post infection", "protocol": "K18-hACE2 transgenic mice were infected with SARS-CoV-2 (10,000 PFU per mouse) intranasally and treated with Mito-MES (4 mg/kg per day intraperitoneally) (n=10) vs vehicle control (Ctrl) (saline 1% DMSO) (n=5 mice). Five mice (n=5) were treated with Mito-MES for 48 h before SARS-COV-2 infection and throughout the infection for 3 days (5 days in total) until mice were sacrificed 72 h post infection. Five mice (n=5) were treated with Mito-MES 8 h after the infection for 3 days (3 days in total) until mice were sacrificed 72 h post infection. The left lung was harvested from all mice, tissue was homogenized in mechanical dissociator and the supernatant was cryopreserved until it was used for viral titer. Viral titer was determined by two independent methods based on cytopathic effect (CPE) effect in Vero-E6 cells and based on an ELISA immunoassay that detected the presence of SARS-CoV-2 Spike S protein in Vero-E6 cells infected with lung supernatants from infected mice. FIG. 7-a summarizes the results of the viral replication by TCID50-assay based on CPE method. FIG. 7-b summarizes the results of the viral replication by TCID50-assay based on ELISA assay. Bars indicate mean±s.e.m.\nThe in vivo antiviral activity of Mito-MES was evaluated in mice. […] Specifically, K18-hACE2 transgenic mice, which express human ACE2, were infected with SARS-CoV-2."}, "[10]": {"assay": "Toxicity and mutagenicity in mice", "settings": "mouse, in vivo"}, "Vero cells": {"tested_on": "Vero cells", "settings": "uninfected Vero cultures, 10-1000 nM"}, "[11]": {"settings": "mice, tissues including liver and kidney, ≥10 days oral supplementation; cited from earlier work"}, "[12]": {"settings": "cited from earlier work"}, "[13]": {"settings": "humans, doses up to at least 80 mg/day for at least a year; cited from earlier work"}, "Calu3 cells": {"tested_on": "Calu3 cells", "assay": "Seahorse mitochondrial respirometry and cellular bioenergetics in infected Calu3 cells", "experimental": "Flow cytometry was used to determine the cellular content of Calu3 cells for mitochondrial reactive oxygen species (mito-ROS) based on the median fluorescence intensity (MFI) of the fluorochrome MitoSOX Red and was compared to a negative cell population (fluorescence minus one negative control for staining) (ΔMFI). Flow cytometry was used to determine the percent of SARS-CoV-2 infected Calu3 cells positive for MitoSOX Red. Calu3 and Vero cells were treated with DMSO vehicle control (Ctrl) or the mitochondrial antioxidants MitoTEMPO (25-1000 nM) (72 h) or Mito-MES (25-1000 nM) (72 h) and were infected with a fluorescent mNeonGreen SARS-CoV-2 (icSARS-CoV-2-mNG) (MOI 0.3) (48 h). Immunofluorescent analysis of viral replication and cellular oxidative stress was performed at 48 h post-infection. […] Seahorse XF Analyzer was used to determine mitochondrial respirometry and cellular bioenergetics [oxygen consumption rate (OCR) and extracellular acidification rate (ECAR)] of live Calu3 cells treated with Mito-MES (25-1000 nM) or vehicle control (ctrl) (72 h) and infected with SARS-CoV-2 (MOI 0.1) (48 h). […] Viral replication was determined by TCID50-assay (FIG. 3-d), cell cytotoxicity was assessed by the XTT assay in uninfected cells treated with dTPP (0.01-10 μM) (72 h) (FIG. 3-e). […]"}},
  "note": "Read-outs that look alike come from different tables or passages of the source.",
  "data": [
    {"compound": "COC1=C(OC)C(=O)C(CCCCCCCCCC[P+](c2ccccc2)(c2ccccc2)c2ccccc2)=C(C)C1=O.CS(=O)(=O)[O-]", "note": "[Mito-MES, 10-(4,5-dimethoxy-2-methyl-3,6-dioxo-1,4-cyclohexadienyl) decyl triphenylphosphonium methanesulfonate]", "values": [
      {"measurement": "antiviral activity by immunofluorescence (spike S protein)", "setting": "SARS-CoV-2 [1]", "value": "modest antiviral activity"},
      {"measurement": "viral genomic RNA in cell lysates (qPCR)", "setting": "SARS-CoV-2 [1]; Vero cells", "value": "confirmed by qPCR"},
      {"measurement": "percent of infected cells positive for N protein and Spike S protein (flow cytometry)", "setting": "SARS-CoV-2 [1]; Vero cells, viable single cells", "value": "reduced the percent of infected cells"},
      {"measurement": "antiviral activity relative to positive control remdesivir (TCID50)", "setting": "SARS-CoV-2 [1]; Vero cells, vs 5 μM remdesivir", "value": "modest compared to 5 μM remdesivir"},
      {"measurement": "concentration at which potent antiviral activity is exhibited (immunofluorescence and PCR)", "setting": "SARS-CoV-2 [2]; Calu3", "value": "≤ 10", "unit": "nM"},
      {"measurement": "viral titers vs vehicle control (TCID50)", "setting": "SARS-CoV-2 [2]; Calu3, 10 nM Mito-MES alone", "value": "reduced viral titers"},
      {"measurement": "reduction of release of progeny virus (TCID50 of cell supernatants)", "setting": "SARS-CoV-2 [2]; Calu3, 100 nM and 1000 nM", "value": "> 2", "unit": "logs"},
      {"measurement": "percent of SARS-CoV-2 infected FOXJ1+ ciliated epithelial cells (flow cytometry)", "setting": "SARS-CoV-2 [3]; ALI HAE cultures", "value": "significantly reduced the percent of SARS-CoV-2 infected human FOXJ1^+ ciliated epithelial cells"},
      {"measurement": "percent of SARS-CoV-2 infected human lung epithelial cells (flow cytometry)", "setting": "SARS-CoV-2 [3]; primary HAE ALI cultures", "value": "significantly reduced the percent of SARS-CoV-2 infected human lung epithelial cells"},
      {"measurement": "percent of SARS-CoV-2 infected cells (flow cytometry)", "setting": "SARS-CoV-2 [4]", "value": "significantly reduced the percent of SARS-CoV-2 infected human non-cancerous HEK293T epithelial cells"},
      {"measurement": "percent of infected cells positive for cleaved caspase 3 and MFI per cell (flow cytometry)", "setting": "cleaved caspase 3 [5]; 100 nM", "value": "inhibits or reduces SARS-CoV-2-induced increase"},
      {"measurement": "SARS-CoV-2-induced cleavage of caspase 3 (immunofluorescence)", "setting": "cleaved caspase 3 [5]; 10-1000 nM", "value": "reduced by Mito-MES treatment"},
      {"measurement": "percent of infected cells positive for cleaved caspase 3 and MFI per cell (flow cytometry)", "setting": "cleaved caspase 3 [6]; Calu3, 100 nM", "value": "inhibits or reduces SARS-CoV-2-induced increase"},
      {"measurement": "SARS-CoV-2-induced cleavage of caspase 3 (immunofluorescence)", "setting": "cleaved caspase 3 [6]; Calu3, 10-1000 nM", "value": "reduced by Mito-MES treatment"},
      {"measurement": "mito-ROS generation (MitoSOX Red MFI and percent positive cells)", "setting": "[7]", "value": "reduced mito-ROS generation"},
      {"measurement": "protein levels of ACE2, TMPRSS2, NRP1 and CD147", "setting": "[8]", "value": "Neither SARS-CoV-2 infection nor Mito-MES significantly modulates"},
      {"measurement": "total cellular IFN-β and IFN-λ protein levels (ELISA, lysates)", "setting": "IFN-β and IFN-λ; infected Calu3, 100-1000 nM", "value": "independently confirmed"},
      {"measurement": "secretion of IFN-β and IFN-λ (ELISA, supernatants)", "setting": "IFN-β and IFN-λ; infected Calu3, 48 h post infection, 100-1000 nM", "value": "did not"},
      {"measurement": "MAVS protein levels", "setting": "MAVS", "value": "did not modulate MAVS protein levels"},
      {"measurement": "TOM70 protein levels (flow cytometry)", "setting": "TOM70", "value": "increased TOM70 protein levels"},
      {"measurement": "TOM70 protein levels (immunofluorescence)", "setting": "TOM70", "value": "dose-dependent increase in TOM70 protein levels"},
      {"measurement": "STING protein levels", "setting": "STING", "value": "did not impact STING"},
      {"measurement": "MX1 protein levels", "setting": "MX1", "value": "increased MX1 protein levels"},
      {"measurement": "protein levels of Nrf2", "setting": "Nrf2", "value": "did not impact protein levels of Nrf2"},
      {"measurement": "protein levels of Keap", "setting": "Keap1", "value": "reduced protein levels of Keap"},
      {"measurement": "secretion of IL-6 resulting from SARS-CoV-2 infection (ELISA)", "setting": "IL-6", "value": "attenuated the increase in secretion of IL-6"},
      {"measurement": "secretion of IL-1β (Luminex)", "setting": "IL-1β", "value": "tended (p=0.09) to reduce the secretion of IL-IP"},
      {"measurement": "lung viral titers (TCID50 by CPE and ELISA) compared to vehicle", "setting": "SARS-CoV-2 [9]", "value": "viral titers were lower"},
      {"measurement": "human equivalent dose relative to the doses administered to A1 and A2 (20 mg/day)", "setting": "[10]", "value": "about 60 fold"},
      {"measurement": "cytotoxicity (XTT assay)", "setting": "Vero cells", "value": "no observed cytotoxicity"},
      {"measurement": "accumulation in tissues", "setting": "[11]", "value": "50 to 700 pmol/g (wet weight)"},
      {"measurement": "average elevation of fasting plasma concentrations", "setting": "[12]; chronic supplementation about 40-80 mg/day, after about 10 days", "value": "about 5 ng/mL"},
      {"measurement": "plasma concentration", "setting": "[12]; humans, single 40 mg oral dose, after 24 h", "value": "about 2 ng/ml"},
      {"measurement": "adverse events", "setting": "[13]", "value": "without any serious adverse events"},
      {"measurement": "ROS", "setting": "Calu3 cells; Calu3, 1000 nM", "value": "increased ROS"},
      {"measurement": "mitochondrial respirometry", "setting": "Calu3 cells; Calu3, 50-1000 nM", "value": "reduced mitochondrial respirometry"}
    ]}
  ]
}
